Source: PubChem BioAssay AID1996
In brackets after ≈: the same amount, converted by molar mass.

Details: buffer; pH 7.4; 200.0 µM

First: CN1CCN(Cc2cn(C)c3ccccc23)CC1CCO (stereo unspecified)
Second: O=C(CN1CCN(c2ccc(Cl)cc2)CC1)c1ccccc1
The solubility kinetic of the first is 1.7-fold higher: 32.3 µg/mL (≈ 112 µM) for the first, 18.7 µg/mL (≈ 59.4 µM) for the second.

CC(C)N(C(=S)Nc1cccnc1)c1ccccc1 and NS(=O)(=O)c1cnccc1NCCc1ccccc1 are within 1.5-fold of each other in solubility kinetic: 32.8 µg/mL (≈ 121 µM) for the first, 40.3 µg/mL (≈ 145 µM) for the second.

Going from CCCn1cnc2cc(NC(=O)c3ccco3)ccc21 to Cc1nc2cc(NCc3cccs3)ccc2n1C, the solubility kinetic falls from greater than 40.4 µg/mL to 31.9 µg/mL (≈ 124 µM).

Compared with CCOCCOc1cccc(C(=O)NC(c2ccccc2)c2ccccc2)c1, Cc1onc(-c2ccccc2)c1C(=O)N(Cc1ccccn1)Cc1ccccn1 is higher in solubility kinetic: less than 0.8 µg/mL for the first, greater than 57.7 µg/mL for the second.

Going from CCOC(=O)C1CCCN(Cc2nc(CC3CC3)no2)C1 (stereo unspecified) to CCOC(=O)C1CCCN(C(=O)c2ccc3ncsc3c2)C1 (stereo unspecified), the solubility kinetic rises from 40 µg/mL (≈ 136 µM) to greater than 47.8 µg/mL.

NS(=O)(=O)c1ccc(NC(=O)COC(=O)CCCN2C(=O)c3cccc4cccc(c34)C2=O)cc1 and CN(C)c1ccc(NC(=O)CN2C(=O)c3ccccc3C2=O)cc1 are within 1.5-fold of each other in solubility kinetic: 8.8 µg/mL (≈ 17.8 µM) for the first, 11.3 µg/mL (≈ 34.9 µM) for the second.

Cn1cccc1C(=O)NCc1ccccn1 and C/C(=N\NC(=O)c1ccc(Cl)cc1)c1ccccn1 cannot be ordered by solubility kinetic: greater than 32.3 µg/mL for the first, greater than 41.1 µg/mL for the second.

CC(CN1CCOCC1)OC(=O)c1ccc(Cl)cc1Cl.Cl (stereo unspecified) and Cn1c(O)c(C=NCCN2CCOCC2)c(=O)n(C)c1=S cannot be ordered by solubility kinetic: 48.9 µg/mL for the first, greater than 46.9 µg/mL for the second.

COc1cccc(OC)c1C(=O)O/N=C(\N)c1ccncc1 and Cc1ccc(C(=O)Nc2ccncc2)c(C)c1 cannot be ordered by solubility kinetic: 42.2 µg/mL (≈ 140 µM) for the first, greater than 33.9 µg/mL for the second.

Going from CC1CCCCC12NC(=O)N(CC(=O)N1CCc3ccccc31)C2=O (stereo unspecified) to CC(C)C1Oc2ccccc2N(CC(=O)NC2CCCCC2)C1=O (stereo unspecified), the solubility kinetic rises from 3.7 µg/mL (≈ 10.8 µM) to greater than 49.6 µg/mL.

First: O=C(OCC(=O)c1ccc[nH]1)C1=COCCO1
Second: CCOc1ccc2oc(C(=O)OCC(=O)NC3CC3)c(C)c2c1
The solubility kinetic of the first is higher: greater than 35.6 µg/mL for the first, 1.5 µg/mL (≈ 4.73 µM) for the second.

Going from N#Cc1ccccc1COC(=O)c1cccc(S(=O)(=O)N2CCCC2)c1 to N#Cc1ccc(C(=O)Nc2cc(S(=O)(=O)N3CCOCC3)ccc2N2CCCC2)cc1, the solubility kinetic rises from 12 µg/mL (≈ 32.4 µM) to greater than 66.1 µg/mL.

COc1cccc(C2C([N+](=O)[O-])=C(N)Oc3cc(C)oc(=O)c32)c1 (stereo unspecified) and COc1cc(C2C(C#N)=C(N)Oc3cc(C)oc(=O)c32)cc(OC)c1OC (stereo unspecified) cannot be ordered by solubility kinetic: greater than 49.5 µg/mL for the first, greater than 55.6 µg/mL for the second.

CC(C)(C)c1csc(NC(=O)c2cccnc2Cl)n1 and O=C(Nc1cccnc1Cl)c1ccc(Cl)cc1 are within 1.5-fold of each other in solubility kinetic: 40.4 µg/mL (≈ 137 µM) for the first, 35 µg/mL (≈ 131 µM) for the second.

Compared with Cc1cccc(-n2c(/C=C/c3ccccn3)nc3ccccc3c2=O)c1, Cc1ccc(O)c(NC(=O)c2cc(-c3ccccc3)on2)c1 is lower in solubility kinetic: 0.5 µg/mL (≈ 1.47 µM) for the first, less than 0.3 µg/mL for the second.

First: CN(C(=O)c1ccc(-c2ccccc2)cc1)C1CCCCC1
Second: O=C(COc1ccccc1C(=O)O)NC1CCCc2ccccc21 (stereo unspecified)
The solubility kinetic of the first is 9.2-fold lower: 1.5 µg/mL (≈ 5.11 µM) for the first, 13.8 µg/mL (≈ 42.4 µM) for the second.

Going from CC1C=CCC2C(=O)N(c3ccc(OC(=O)c4ccco4)cc3)C(=O)C12 (stereo unspecified) to CC(C)(C)c1ccc(N2C(=O)CC(c3ccccc3)C2=O)cc1 (stereo unspecified), the solubility kinetic falls from 18 µg/mL (≈ 51.2 µM) to less than 0.7 µg/mL.

First: C=C(C)COc1ccc(-c2ncncc2-c2ccccc2OC)c(O)c1
Second: COc1ccc(CN(C)Cc2c(O)ccc3ccccc23)cc1
The solubility kinetic of the first is 3-fold lower: 5.5 µg/mL (≈ 15.8 µM) for the first, 16.7 µg/mL (≈ 54.3 µM) for the second.

First: Cc1cc(C(=O)NCCc2ccc(Cl)cc2)no1
Second: O=C(NCc1ccc(Cl)cc1)c1ccc(N2CCCC2=O)cc1
The solubility kinetic of the first is 3.5-fold higher: 18.6 µg/mL (≈ 70.3 µM) for the first, 5.3 µg/mL (≈ 16.1 µM) for the second.

Going from O=C(CCSc1ccc(Cl)cc1)NCc1ccncc1 to O=C(/C=C/c1cccc(Cl)c1)NCc1ccccc1, the solubility kinetic falls from greater than 46 µg/mL to 3.4 µg/mL (≈ 12.5 µM).

Compared with S=c1[nH]ccn1CCc1ccccc1, CN(C)CCN(Cc1cccs1)c1ccccn1.Cl is higher in solubility kinetic: 22.7 µg/mL (≈ 111 µM) for the first, greater than 44.7 µg/mL for the second.

First: Oc1ccc(N2CCN(CC(O)c3ccccc3)CC2)cc1 (stereo unspecified)
Second: COc1ccc(N2CCN(C(=O)NC(=O)c3ccc(Cl)cc3)CC2)cc1
The solubility kinetic of the first is higher: greater than 44.8 µg/mL for the first, 3.1 µg/mL (≈ 8.29 µM) for the second.

Compared with O=c1[nH]c2cc3ccccc3cc2nc1C(F)(F)F, O=c1[nH]c(CSc2ncn[nH]2)nc2ccccc12 is higher in solubility kinetic: 2.9 µg/mL (≈ 11 µM) for the first, greater than 38.9 µg/mL for the second.

Going from COCCN=C(NS(=O)(=O)c1cccs1)c1ccccc1Cl to Cc1ccc(OCCNC(=O)c2ccc3ccccc3n2)cc1, the solubility kinetic falls from greater than 53.8 µg/mL to 5.4 µg/mL (≈ 17.6 µM).

First: COc1cccc(C(=O)NCCCNC(=O)c2cccnc2)c1
Second: CC(C)(C)C(=O)Oc1cccc(Nc2ncnc3ccccc23)c1
The solubility kinetic of the first is higher: greater than 47 µg/mL for the first, 34.1 µg/mL (≈ 106 µM) for the second.

Going from O=S(=O)(c1ccc(-c2ccon2)s1)N1CCOCC1 to COc1ccc(S(=O)(=O)N2CCOCC2)cc1NC(=O)COc1ccc2ccc(=O)oc2c1, the solubility kinetic falls from greater than 45.1 µg/mL to 6 µg/mL (≈ 12.6 µM).

First: CCCS(=O)(=O)N1CCCC(C(=O)c2ccccc2OC)C1 (stereo unspecified)
Second: CCOC(=O)C1CCCN(C(=O)c2cc3ccccc3oc2=O)C1 (stereo unspecified)
The solubility kinetic of the first is higher: greater than 48.8 µg/mL for the first, 38.8 µg/mL (≈ 118 µM) for the second.

First: CC1Cc2ccccc2N1C(=O)COc1ccc2c(c1)OCO2 (stereo unspecified)
Second: COc1ccc(N(CC(=O)NC2CCS(=O)(=O)C2)S(=O)(=O)c2cc(C)ccc2C)cc1 (stereo unspecified)
The solubility kinetic of the first is 1.5-fold lower: 43.1 µg/mL (≈ 138 µM) for the first, 66.3 µg/mL (≈ 142 µM) for the second.

O=C(O)c1ccc(-n2cc(C(=O)c3ccccc3O)cn2)cc1 and CC(=O)Nc1ccc(NC(=O)CCc2ccc(C)o2)cc1 cannot be ordered by solubility kinetic: greater than 46.2 µg/mL for the first, greater than 42.9 µg/mL for the second.

CC12CCC(C/C1=N/O)C2(C)CBr (stereo unspecified) and O=C(NCC1CCCO1)c1cnc(Cl)c(Cl)c1 (stereo unspecified) cannot be ordered by solubility kinetic: greater than 36.9 µg/mL for the first, greater than 41.3 µg/mL for the second.

CC1CC(C)CN(C(=O)c2ccc3ncsc3c2)C1 (stereo unspecified) showed a solubility kinetic greater than 41.2 µg/mL.
